In US12583866B2, “Pyrido[2,3-b][1,4]oxazines or tetrahydropyrido[2,3-b][1,4]oxazepines as IAP antagonists” (BEIGENE, LTD., priority 2020, dated 2026):

Assays:
[1] = target: T1, recombinant human cIAP2-BIR3 protein (Homo sapiens, UniProt Q13489); assay: Recombinant human c-IAP2-BIR3 biochemical assay (HTRF, peptide displacement); settings: 3.7 nM cIAP2-BIR3, 3.7 nM AbuRPF-K(5-Fam)-NH2 peptide, read-out: Protein binding IC50 (nM) c-IAP2
T1 construct: recombinant human cIAP2-BIR3 protein; purchased Reaction biology APT-11-372
Experimental: II. Recombinant Human c-IAP2-BIR3 Biochemical Assay
(§1) Compounds disclosed herein were tested for blocking of recombinant human cIAP2-BIR3 protein (Cat: APT-11-372, Reaction biology) with its peptide in an assay based on Homogeneous Time Resolved Fluorescence. 3.7 nM recombinant human cIAP2-BIR3 protein was pre-incubated with a serial dilution of compounds disclosed herein (maximum concentration is 10 uM, 4-fold serially diluted, 10 points) at room temperature for 1 hour in an assay buffer containing 20 mM HEPES, pH 7.5, 50 mM NaCl, 0.005% Tween-20, 1 mM DTT. Then 3.7 nM AbuRPF-K(5-Fam)-NH2 (Cat: 709702, GL Biochem) was added to plate incubated at room temperature for 1 hour. Mab Anti-6His Tb cryptate Gold (Cat: 61HI2TLB, Cisbio Bioassays) was added to plate and further incubated at room temperature for 1 hour. The HTRF signals (ex337 nm, em520 nm/490 nm) were read on BMG PHERAstar FS instrument. The inhibition percentage of cIAP2-BIR3 interaction with its peptide in presence of increasing concentrations of compounds was calculated based on the ratio of fluorescence at 520 nm to that at 490 nm. The IC50 for each compound was derived from fitting the data to the four-parameter logistic equation by Dotmatics and summarized in table 1.

[2] = target: T2, recombinant human cIAP1-BIR3 protein (Homo sapiens, UniProt Q13490); assay: Recombinant human c-IAP1-BIR3 biochemical assay (HTRF, peptide displacement); settings: 1.2 nM cIAP1-BIR3, 3 nM AbuRPF-K(5-Fam)-NH2 peptide, read-out: Protein binding IC50 (nM) c-IAP1
T2 construct: recombinant human cIAP1-BIR3 protein; purchased Reaction biology APT-11-370
Experimental: I. Recombinant human c-IAP1-BIR3 biochemical assay
as §1, with “human cIAP1-BIR3” for “human cIAP2-BIR3”, “(Cat: APT-11-370,” for “(Cat: APT-11-372,”, “Fluorescence. 1.2” for “Fluorescence. 3.7”, “Then 3” for “Then 3.7”, “nM AbuRPF-K (5-Fam)-NH2” for “nM AbuRPF-K(5-Fam)-NH2”, “of cIAP1-BIR3” for “of cIAP2-BIR3”

[3] = target: T3, recombinant human XIAP-BIR3 protein (Homo sapiens, UniProt P98170); assay: Recombinant human XIAP-BIR3 biochemical assay (HTRF, peptide displacement); settings: 3.7 nM XIAP-BIR3, 7.6 nM AbuRPF-K(5-Fam)-NH2 peptide, read-out: Protein binding IC50 (nM) XIAP
T3 construct: recombinant human XIAP-BIR3 protein; purchased Reaction biology APT-11-374
Experimental: III. Recombinant Human XIAP-BIR3 Biochemical Assay
as §1, with “human XIAP-BIR3” for “human cIAP2-BIR3”, “(Cat: APT-11-374,” for “(Cat: APT-11-372,”, “Then 7.6” for “Then 3.7”, “of XIAP-BIR3” for “of cIAP2-BIR3”

T3 sequence (P98170 241-356 limits assumed): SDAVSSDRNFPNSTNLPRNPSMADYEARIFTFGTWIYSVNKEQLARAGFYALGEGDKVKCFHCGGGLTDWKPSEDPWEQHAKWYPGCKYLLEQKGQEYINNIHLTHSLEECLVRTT
T1 sequence (Q13489 238-349 limits assumed): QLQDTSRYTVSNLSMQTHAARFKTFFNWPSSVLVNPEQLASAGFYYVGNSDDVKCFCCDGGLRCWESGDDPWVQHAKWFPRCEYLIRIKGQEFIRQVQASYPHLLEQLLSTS
T2 sequence (Q13490 253-363 limits assumed): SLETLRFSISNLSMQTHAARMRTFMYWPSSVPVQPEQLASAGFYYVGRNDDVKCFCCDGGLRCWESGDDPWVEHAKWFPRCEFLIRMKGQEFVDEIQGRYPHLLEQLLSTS

Row | Structure (SMILES) | IC50 [1] | IC50 [2] | IC50 [3]
1 | C[C@@H]1CN(CC(=O)N2c3cc(Cc4ccc(F)cc4)c(C(=O)N[C@H]4CCOC4)nc3OC[C@@H]2C)[C@@H](CN2[C@H](C)COC[C@H]2C)CN1 [Example 79, (S)-1-(2-((2R,5R)-2-(((3R,5R)-3,5-dimethylmorpholino)methyl)-5-methylpiperazin-1-yl)acetyl)-7-(4-fluorobenzyl)-2-methyl-N—((S)-tetrahydrofuran-3-yl)-2,3-dihydro-1H-pyrido[2,3-b][1,4]oxazine-6-carboxamide] | 0.33 nM | 0.19 nM | 5.2 nM
2 | C[C@@H]1CN(CC(=O)N2c3cc(Cc4ccc(F)cc4)c(NC(=O)C4CC4)nc3OC[C@@H]2C)[C@@H](CN2[C@H](C)COC[C@H]2C)CN1 [Compound 119, N—((S)-1-(2-((2R,5R)-2-(((3R,5R)-3,5-dimethylmorpholino)methyl)-5-methylpiperazin-1-yl)acetyl)-7-(4-fluorobenzyl)-2-methyl-2,3-dihydro-1H-pyrido[2,3-b][1,4]oxazin-6-yl)cyclopropanecarboxamide] | 0.35 nM | 0.2 nM | 4.4 nM
3 | C[C@@H]1CN(CC(=O)N2CCCOc3ncc(Cc4ccc(F)cc4)cc32)[C@@H](CN2CCOC[C@H]2C)CN1 [Compound 18, 1-(8-(4-fluorobenzyl)-3,4-dihydropyrido[2,3-b][1,4]oxazepin-1(2H)-yl)-2-((2R,5R)-5-methyl-2-(((R)-3-methylmorpholino)methyl)piperazin-1-yl)ethan-1-one] | > 1000 nM | > 1000 nM | > 1000 nM
4 | C[C@@H]1CN(CC(=O)N2c3cc(Cc4ccc(F)cc4)c(OCCN4CCOCC4)nc3OC[C@@H]2C)[C@@H](CN2[C@H](C)COC[C@H]2C)CN1 [Compound 90] | 0.34 nM | 0.22 nM | 3.8 nM
5 | C[C@@H]1CN(CC(=O)N2c3cc(Cc4ccc(F)cc4)c(C(=O)N4CC(O)C4)nc3OC[C@@H]2C)[C@@H](CN2[C@H](C)COC[C@H]2C)CN1 [Example 74, 2-((2R,5R)-2-(((3R,5R)-3,5-dimethylmorpholino)methyl)-5-methylpiperazin-1-yl)-1-((S)-7-(4-fluorobenzyl)-6-(3-hydroxyazetidine-1-carbonyl)-2-methyl-2,3-dihydro-1H-pyrido[2,3-b][1,4]oxazin-1-yl)ethan-1-one] | 0.51 nM | 0.25 nM | 11 nM
6 | C[C@@H]1CN(CC(=O)N2CCOc3ncc(Cc4ccc(F)cc4)cc32)[C@@H](CN2C(=O)OC[C@H]2C(F)F)CN1 [Compound 15, (S)-4-(difluoromethyl)-3-(((2R,5R)-1-(2-(7-(4-fluorobenzyl)-2,3-dihydro-1H-pyrido[2,3-b][1,4]oxazin-1-yl)-2-oxoethyl)-5-methylpiperazin-2-yl)methyl)oxazolidin-2-one] | 6.9 nM | 3.4 nM | 196 nM
7 | C[C@@H]1CN(CC(=O)N2c3cc(Cc4ccc(F)cc4)c(CO)nc3OC[C@@H]2C)[C@@H](CN2CCOC[C@H]2CO)CN1 [Compound 54, 1-((S)-7-(4-fluorobenzyl)-6-(hydroxymethyl)-2-methyl-2,3-dihydro-1H-pyrido[2,3-b][1,4]oxazin-1-yl)-2-((2R,5R)-2-(((R)-3-(hydroxymethyl)morpholino)methyl)-5-methylpiperazin-1-yl)ethan-1-one] | 2.8 nM | 1.7 nM | 25 nM
8 | COCCOc1nc2c(cc1Cc1ccc(F)cc1)N(C(=O)CN1C[C@@H](C)NC[C@@H]1CN1[C@H](C)COC[C@H]1C)[C@@H](C)CO2 [Compound 89, 2-((2R,5R)-2-(((3R,5R)-3,5-dimethylmorpholino)methyl)-5-methylpiperazin-1-yl)-1-((S)-7-(4-fluorobenzyl)-6-(2-methoxyethoxy)-2-methyl-2,3-dihydro-1H-pyrido[2,3-b][1,4]oxazin-1-yl)ethan-1-one] | 0.36 nM | 0.17 nM | 3.1 nM
